Results published in US20240024494A1, “SMALL-MOLECULE CONJUGATE AND USE THEREOF” (SHANGHAI MEWSGEN BIOTECHNOLOGY CO., LTD, priority 2020, published 2024).

Tested on: tumor cell strains (colon cancer, pancreatic cancer, esophageal squamous carcinoma, gastric cancer, glioma)
Assay: Summary of in-vitro proliferation inhibition on tumor cell strains (Examples 19-21)
Assay type: cell-based, human
Protocol: A part of the compounds prepared in the examples of the present disclosure were subjected to a tumor cell proliferation inhibition test by using a CCK-8 method. A cell line HCT116 (human colon carcinoma cells) and SW1990 (human pancreatic carcinoma cells) were purchased from Shanghai Meixuan Technology Co., Ltd. Samples (a part of the compounds prepared in the examples) were dissolved in DMSO (Merck), prepared into a concentration of 10 mM, and finally triply diluted in DMEM or McCoy's 5A 1640 medium to 8 concentration gradients. A cell culture solution was collected when a cell culture met a test requirement, 10 μL of the cell culture solution was uniformly coated on a cell counting plate, cells were counted for 3 times under a microscope, and a cell density was calculated by taking an average value; and a 96-well plate (Corning, #3599) was taken, 200 μL of the cell culture solution was added into each well for cell inoculation at a cell concentration of 6×10^3 cells per well, and the inoculated 96-well plate was incubated in a cell incubator containing 5% CO2 at 37° C. for 24 h. An old culture medium was removed by suction, 200 μL of the triply diluted sample DMEM or McCoy's 5A 1640 medium at an initial concentration of 10 μmol/L was added to each well, the DMSO content was controlled to be 1%, three duplicate wells were set, PBS was used as a blank control, and the plate was incubated in the incubator for 72 h. The original DMEM or McCoy's 5A 1640 medium in the 96-well plate and a PBS buffer in a final row were sucked out, a prepared CCK-8 solution (90% DMEM or McCoy's 5A 1640 medium+10% CCK-8) was added, the mixture was incubated in an incubator, and an absorbance was read by using a Biotek microplate reader. Cell growth inhibition rate IC %=(blank control well OD value−administration well OD value)/blank control well OD value×100%.
In-vitro activity test: 100 μL of a cell suspension at a concentration of 4-5×10^4/mL was added to each well of a 96-well plate, and placed in a 5% CO2 incubator at 37° C. After 24 h, a sample solution was added at 10 μL/well, double duplicate wells were set, and a reaction was performed at 37° C. with 5% CO2 for 72 h. 20 μL of 5 mg/ml of an MTT solution was added into each well and reacted for 4 h, a dissolving solution was added at 100 μL/well, the mixture was placed in an incubator, and after dissolution, an OD value at 570 nm was measured with a full-wavelength multifunctional microplate reader. An inhibition rate (IR) and a median inhibitory concentration (IC50) were calculated by using an Excel software.
A part of the compounds prepared in the examples of the present disclosure were subjected to a tumor cell proliferation inhibition test by using a CCK-8 method. Cell lines HCT116 (human colon cancer cells), MGC803 (human gastric cancer cells), and MIA PACA-2 (human pancreatic cancer cells) were purchased from Shanghai Meixuan Technology Co., Ltd. Samples (a part of the compounds prepared in the examples) were dissolved in DMSO (Merck), prepared into a concentration of 10 mM, and finally triply diluted in DMEM or McCoy's 5A 1640 medium to 8 concentration gradients. A cell culture solution was collected when a cell culture met a test requirement, 10 μL of the cell culture solution was uniformly coated on a cell counting plate, cells were counted for 3 times under a microscope, and a cell density was calculated by taking an average value; and a 96-well plate (Corning, #3599) was taken, 200 μL of the cell culture solution was added into each well for cell inoculation at a cell concentration of 6×10^3 cells per well, and the inoculated 96-well plate was incubated in a cell incubator containing 5% CO2 at 37° C. for 24 h. […]

COc1cc(C(=O)NCCOCCOCCOCCOCCC(=O)N[C@@H](C(=O)N[C@@H](CCCNC(N)=O)C(=O)Nc2ccc(COC(=O)N3CCN(C(=O)O[C@H]4CC[C@@]5(C)[C@H](CC[C@@H]6[C@@H]5[C@H](O)C(=O)[C@]5(C)[C@@H](c7ccc(=O)oc7)CC[C@]65O)C4)CC3)cc2)C(C)C)ccc1NC(=O)[C@@H]1N[C@@H](CC(C)(C)C)[C@](C#N)(c2ccc(Cl)cc2F)[C@H]1c1cccc(Cl)c1F [Compound I-1]
Proliferation inhibition activities IC50 on most tumor cell strains (in words): between several to hundreds of nanomoles
